Assay results: patent EP1692296B1 (priority 2003, dated 2005)
“Also recorded” adds a separate entry of the source. Where two headings read alike, the source gives them in different places.

System: protease
Format: biochemical, Aspergillus sp. MTCC 5102

| Structure (SMILES) | % inhibition [%] | Residual specific activity (%) | inhibition of the protease activity (in words) | % inhibition (200 µM) [%] | Residual specific activity (%) (200 µM) |
| --- | --- | --- | --- | --- | --- |
| O=S(=O)(F)Cc1ccccc1 [PMSF, phenylmethylsulfonyl fluoride] | 100 | 0 | totally inhibited; also recorded: inhibition of the activity | – | – |
| O=C(O)CN(CCN(CC(=O)O)CC(=O)O)CC(=O)O [EDTA, ethylenediamine tetraacetic acid] | 6 | 94 | not inhibited; also recorded: no inhibition of activity | – | – |
| [Cl][Hg][Cl] [HgCl2, mercuric chloride] | – | – | not inhibited | 14 | 86 |
